Source: US6737383B1, “Herbicidal oxadiazolidines” (priority 1999, dated 2004)

Columns and labels:
blackgrass = assay: Test B pre/postemergence blackgrass; assay type: in vivo, Alopecurus myosuroides
In short: (§1)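 Herbicidal effect was estimated by eye on a ten-point control scale after plants spent twelve to sixteen days in a greenhouse following soil or foliar treatment. Foliar sprays targeted plants at one to four leaves; all doses were formulated in a non-phytotoxic solvent with surfactant.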

surinam grass = assay: Test B pre/postemergence surinam grass; assay type: in vivo, Brachiaria decumbens
In short: as §1

cocklebur = assay: Test B pre/postemergence cocklebur; assay type: in vivo, Xanthium strumarium
In short: as §1

corn = assay: Test B pre/postemergence corn; assay type: in vivo, Zea mays
In short: as §1

crabgrass = assay: Test B pre/postemergence crabgrass; assay type: in vivo, Digitaria sanguinalis
In short: as §1

giant foxtail = assay: Test B pre/postemergence giant foxtail; assay type: in vivo, Setaria faberii
In short: as §1

morningglory = assay: Test B pre/postemergence morningglory; assay type: in vivo, Ipomoea hederacea; conditions: for Plant response rating, Morningglory: scale of 0 to 10 where 0 is no effect and 10 is complete control
In short: as §1

pigweed = assay: Test B pre/postemergence pigweed; assay type: in vivo, Amaranthus retroflexus; conditions: for Plant response rating, Redroot pigweed: scale of 0 to 10 where 0 is no effect and 10 is complete control
In short: as §1

rape = assay: Test B pre/postemergence rape; assay type: in vivo, Brassica napus; conditions: for Plant response rating, Rape: scale of 0 to 10 where 0 is no effect and 10 is complete control
In short: as §1

sugar beet = assay: Test B pre/postemergence sugar beet; assay type: in vivo, Beta vulgaris; conditions: for Plant response rating, Sugarbeets: scale of 0 to 10 where 0 is no effect and 10 is complete control
In short: as §1

velvetleaf = assay: Test B pre/postemergence velvetleaf; assay type: in vivo, Abutilon theophrasti; conditions: for Plant response rating, Velvetleaf: scale of 0 to 10 where 0 is no effect and 10 is complete control
In short: as §1

wild oat = assay: Test B pre/postemergence wild oat; assay type: in vivo, Avena fatua; conditions: for Plant response rating, Wild oats: scale of 0 to 10 where 0 is no effect and 10 is complete control
In short: as §1

rice = assay: Test B flood test rice; assay type: in vivo, Oryza sativa
In short: (§2)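 Flood test on plants grown to the 2-leaf stage; treated plants kept in greenhouse twelve to sixteen days, then visually rated against controls on a 0 (no effect) to 10 (complete control) scale.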

smallflower flatsedge = assay: Test B flood test smallflower flatsedge; assay type: in vivo, Cyperus difformis
In short: as §2

bamyardgrass = assay: Test B flood test barnyardgrass; assay type: in vivo, Echinochloa crus-galli
In short: as §2

[1] = Postemergence, Rate 250 g/ha, scale 0 to 10
[2] = Postemergence, Rate 500 g/ha, scale of 0 to 10 where 0 is no effect and 10 is complete control
[3] = Preemergence, Rate 62 g/ha, scale of 0 to 10 where 0 is no effect and 10 is complete control
[4] = Preemergence, Rate 125 g/ha, scale of 0 to 10 where 0 is no effect and 10 is complete control
[5] = Preemergence, Rate 250 g/ha, scale 0 to 10, 0 is no effect, 10 is complete control
[6] = Preemergence, Rate 500 g/ha, scale 0 to 10, 0 is no effect, 10 is complete control
[7] = Rate 62 g/ha, Postemergence, scale 0 to 10, 0 no effect, 10 complete control
[8] = Rate 125 g/ha, Postemergence, scale 0 to 10, 0 is no effect, 10 is complete control
[9] = Rate 62 g/ha, flood test species, Pre-emergence, visual evaluation after twelve to sixteen days
[10] = Rate 125 g/ha, under heading Pre-emergence, flood test species, visual evaluation after twelve to sixteen days
[11] = Rate 250 g/ha, Pre-emergence (flood test species), scale 0 to 10, 0 is no effect, 10 is complete control
[12] = Rate 500 g/ha, Pre-emergence, flood test species, scale 0 to 10 (0 no effect, 10 complete control)

CCC=CCn1c(=O)on(C(=O)N(c2ccccc2)C(C)C)c1=O [Compound 454]
9: Crabgrass plant response rating (crabgrass; [2]) | Crabgrass plant response rating (crabgrass; [6]) | Giant foxtail plant response rating (giant foxtail; [2]) | Plant response rating, Giant foxtail (giant foxtail; [4]) | Morningglory plant response rating (morningglory; [8]) | Redroot pigweed plant response rating (pigweed; [5])
6: Blackgrass plant response rating (blackgrass; [6]) | Plant response rating, Giant foxtail (giant foxtail; [3]) | Velvetleaf plant response rating (velvetleaf; [6])
4: B. signalgrass plant response rating (surinam grass; [5]) | B. signalgrass plant response rating (surinam grass; [6])
8: Crabgrass plant response rating (crabgrass; [5]) | Giant foxtail plant response rating (giant foxtail; [1])
7: Morningglory plant response rating (morningglory; [7])
3: Corn plant response rating (corn; [6]) | Crabgrass plant response rating (crabgrass; [1]) | Plant response rating, Crabgrass (crabgrass; [4])
5: Velvetleaf plant response rating (velvetleaf; [5])
10: Giant foxtail plant response rating (giant foxtail; [5]) | Giant foxtail plant response rating (giant foxtail; [6]) | Morningglory plant response rating (morningglory; [1]) | Redroot pigweed plant response rating (pigweed; [6])
0: Plant response rating, Blackgrass (blackgrass; [3]) | Plant response rating, Blackgrass (blackgrass; [4]) | Blackgrass plant response rating (blackgrass; [7]) | Blackgrass plant response rating (blackgrass; [8]) | B. signalgrass plant response rating (surinam grass; Postemergence, Rate 250 g/ha, scale 0 to 10, 0 no effect, 10 complete control) | Plant response rating, B. signalgrass (surinam grass; [3]) | Plant response rating, B. signalgrass (surinam grass; [4]) | B. signalgrass plant response rating (surinam grass; [7]) | B. signalgrass plant response rating (surinam grass; [8]) | Cocklebur plant response rating (cocklebur; [1]) | Cocklebur plant response rating (cocklebur; [2]) | Plant response rating, Cocklebur (cocklebur; [3]) | Plant response rating, Cocklebur (cocklebur; [4]) | Cocklebur plant response rating (cocklebur; [5]) | Cocklebur plant response rating (cocklebur; [6]) | Cocklebur plant response rating (cocklebur; [7]) | Cocklebur plant response rating (cocklebur; [8]) | Corn plant response rating (corn; [1]) | Corn plant response rating (corn; [2]) | Plant response rating, Corn (corn; [3]) | Plant response rating, Corn (corn; [4]) | Corn plant response rating (corn; [5]) | Corn plant response rating (corn; [7]) | Corn plant response rating (corn; [8]) | Plant response rating, Morningglory (morningglory; Preemergence, Rate 62 g/ha) | Plant response rating, Morningglory (morningglory; Preemergence, Rate 125 g/ha) | Morningglory plant response rating (morningglory; [5]) | Morningglory plant response rating (morningglory; [6]) | Plant response rating, Redroot pigweed (pigweed; Preemergence, Rate 62 g/ha) | Redroot pigweed plant response rating (pigweed; [7]) | Redroot pigweed plant response rating (pigweed; [8]) | Rape plant response rating (rape; [1]) | Plant response rating, Rape (rape; Preemergence, Rate 62 g/ha) | Plant response rating, Rape (rape; Preemergence, Rate 125 g/ha) | Rape plant response rating (rape; [5]) | Rape plant response rating (rape; [6]) | Rape plant response rating (rape; [7]) | Rape plant response rating (rape; [8]) | Sugarbeets plant response rating (sugar beet; [1]) | Plant response rating, Sugarbeets (sugar beet; Preemergence, Rate 62 g/ha) | Plant response rating, Sugarbeets (sugar beet; Preemergence, Rate 125 g/ha) | Sugarbeets plant response rating (sugar beet; [5]) | Sugarbeets plant response rating (sugar beet; [6]) | Sugarbeets plant response rating (sugar beet; [7]) | Sugarbeets plant response rating (sugar beet; [8]) | Velvetleaf plant response rating (velvetleaf; [1]) | Plant response rating, Velvetleaf (velvetleaf; Preemergence, Rate 62 g/ha) | Plant response rating, Velvetleaf (velvetleaf; Preemergence, Rate 125 g/ha) | Velvetleaf plant response rating (velvetleaf; [7]) | Velvetleaf plant response rating (velvetleaf; [8]) | Wild oats plant response rating (wild oat; [1]) | Plant response rating, Wild oats (wild oat; Preemergence, Rate 62 g/ha) | Plant response rating, Wild oats (wild oat; Preemergence, Rate 125 g/ha) | Wild oats plant response rating (wild oat; [5]) | Wild oats plant response rating (wild oat; [7]) | Wild oats plant response rating (wild oat; [8]) | Plant response rating, Rice (0 to 10 scale, 0 is no effect, 10 is complete control) (rice; [9]) | Rice plant response rating (0 to 10 scale, 0 is no effect, 10 is complete control) (rice; [10]) | Rice plant response rating (rice; [11]) | Rice plant response rating (rice; [12]) | Plant response rating, S. Flatsedge (0 to 10 scale, 0 is no effect, 10 is complete control) (smallflower flatsedge; [9]) | S. Flatsedge plant response rating (0 to 10 scale, 0 is no effect, 10 is complete control) (smallflower flatsedge; [10]) | S. Flatsedge plant response rating (smallflower flatsedge; [11]) | S. Flatsedge plant response rating (smallflower flatsedge; [12]) | Plant response rating, Barnyardgrass (0 to 10 scale, 0 is no effect, 10 is complete control) (bamyardgrass; [9]) | Barnyardgrass plant response rating (0 to 10 scale, 0 is no effect, 10 is complete control) (bamyardgrass; [10]) | Barnyardgrass plant response rating (bamyardgrass; [11]) | Barnyardgrass plant response rating (bamyardgrass; [12])
2: Blackgrass plant response rating (blackgrass; [1]) | Blackgrass plant response rating (blackgrass; [2]) | Blackgrass plant response rating (blackgrass; [5]) | B. signalgrass plant response rating (surinam grass; [2]) | Plant response rating, Crabgrass (crabgrass; [3]) | Crabgrass plant response rating (crabgrass; [7]) | Giant foxtail plant response rating (giant foxtail; [7]) | Giant foxtail plant response rating (giant foxtail; [8]) | Redroot pigweed plant response rating (pigweed; [1]) | Plant response rating, Redroot pigweed (pigweed; Preemergence, Rate 125 g/ha) | Wild oats plant response rating (wild oat; [6])
